Assays:
Details in all cases: Preemergence
[1] = tested on: blackgrass; assay: Test B pre/postemergence blackgrass; format: in vivo, Alopecurus myosuroides
How it was run: (§1)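 Test chemicals in a non-phytotoxic solvent mixture with surfactant were sprayed preemergence onto planted seeds and postemergence onto plants 2 to 18 cm tall (1- to 4-leaf stage). After twelve to sixteen days in a greenhouse, injury was visually rated against untreated controls from 0 (no effect) to 10 (complete control).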

[2] = tested on: pigweed; assay: Test B pre/postemergence pigweed; format: in vivo, Amaranthus retroflexus
How it was run: as §1

[3] = tested on: rape; assay: Test B pre/postemergence rape; format: in vivo, Brassica napus
How it was run: as §1

[4] = tested on: crabgrass; assay: Test B pre/postemergence crabgrass; format: in vivo, Digitaria sanguinalis
How it was run: as §1

[5] = tested on: wild oat; assay: Test B pre/postemergence wild oat; format: in vivo, Avena fatua
How it was run: as §1

[6] = tested on: sugar beet; assay: Test B pre/postemergence sugar beet; format: in vivo, Beta vulgaris
How it was run: as §1

[7] = tested on: cocklebur; assay: Test B pre/postemergence cocklebur; format: in vivo, Xanthium strumarium
How it was run: as §1

[8] = tested on: morningglory; assay: Test B pre/postemergence morningglory; format: in vivo, Ipomoea hederacea
How it was run: as §1

[9] = tested on: surinam grass; assay: Test B pre/postemergence surinam grass; format: in vivo, Brachiaria decumbens
How it was run: as §1

[10] = tested on: purple nutsedge; assay: Test B pre/postemergence purple nutsedge; format: in vivo, Cyperus rotundus
How it was run: as §1

[11] = tested on: wheat; assay: Test B pre/postemergence wheat; format: in vivo, Triticum aestivum
How it was run: as §1

[12] = tested on: corn; assay: Test B pre/postemergence corn; format: in vivo, Zea mays
How it was run: as §1

[13] = tested on: soybean; assay: Test B pre/postemergence soybean; format: in vivo, Glycine max
How it was run: as §1

[14] = tested on: bedstraw; assay: Test B pre/postemergence bedstraw; format: in vivo, Galium aparine
How it was run: as §1

[15] = tested on: giant foxtail; assay: Test B pre/postemergence giant foxtail; format: in vivo, Setaria faberii
How it was run: as §1

[16] = tested on: velvetleaf; assay: Test B pre/postemergence velvetleaf; format: in vivo, Abutilon theophrasti
How it was run: as §1

[17] = Rate 62 g/ha, scale of 0 to 10 where 0 is no effect and 10 is complete control
[18] = Rate 125 g/ha, scale of 0 to 10 where 0 is no effect and 10 is complete control
[19] = Rate 250 g/ha, scale 0 to 10 (0 no effect, 10 complete control)
[20] = Rate 500 g/ha, scale of 0 to 10 where 0 is no effect and 10 is complete control
[21] = Rate 250 g/ha, scale 0 (no effect) to 10 (complete control)
[22] = Rate 500 g/ha, scale 0 to 10 (0 no effect, 10 complete control)

For `CCn1ncc(Cn2c(=O)on(C(=O)N(c3ccc(F)cc3)C(C)C)c2=O)c1Cl` [Compound 686], the “Blackgrass plant response rating” value [1, 17] was 4, the “Plant response rating, Blackgrass” value [1, 18] was 7 and the “Plant response rating, Blackgrass” value [1, 19] was 8. The “Plant response rating, Blackgrass” value [1, 20] was 9, the “Redroot pigweed plant response rating” value [2, 17] was 0 and the “Plant response rating, Redroot pigweed” value [2, 18] was 6. The “Rape plant response rating” value [3, 17] was 0, the “Plant response rating, Rape” value [3, 18] was 0 and the “Crabgrass plant response rating” value [4, 17] was 8. For the same molecule, the “Plant response rating, Crabgrass” value [4, 18] was 9, the “Plant response rating, Crabgrass” value [4, 19] was 10 and the “Wild oats plant response rating” value [5, 17] was 0. The “Plant response rating, Wild oats” value [5, 18] was 1, the “Sugarbeets plant response rating” value [6, 17] was 0 and the “Plant response rating, Sugarbeets” value [6, 18] was 0. The “Cocklebur plant response rating” value [7, 17] was 0, the “Plant response rating, Cocklebur” value [7, 19] was 0 and the “Plant response rating, Cocklebur” value [7, 20] was 0. For the same molecule, the “Morningglory plant response rating” value [8, 17] was 0, the “Plant response rating, Morningglory” value [8, 18] was 0 and the “B. signalgrass plant response rating” value [9, 17] was 2. For the same molecule, the “Plant response rating, B. signalgrass” value [9, 18] was 5, the “Plant response rating, B. signalgrass” value [9, 19] was 7 and the “Plant response rating, B. signalgrass” value [9, 20] was 9. For the same molecule, the “Nutsedge plant response rating” value [10, 17] was 0, the “Plant response rating, Nutsedge” value [10, 18] was 0 and the “Wheat plant response rating” value [11, 17] was 0. For the same molecule, the “Plant response rating, Wheat” value [11, 18] was 0, the “Corn plant response rating” value [12, 17] was 0 and the “Plant response rating, Corn” value [12, 18] was 0. The “Plant response rating, Corn” value [12, 19] was 0, the “Soybean plant response rating” value [13, 17] was 0 and the “Plant response rating, Soybean” value [13, 18] was 0. The “Bedstraw plant response rating” value [14, 17] was 0, the “Plant response rating, Bedstraw” value [14, 18] was 0 and the “Plant response rating, Bedstraw” value [14, 19] was 0. For the same molecule, the “Plant response rating, Bedstraw” value [14, 20] was 0, the “Giant foxtail plant response rating” value [15, 17] was 9 and the “Plant response rating, Giant foxtail” value [15, 18] was 9. For the same molecule, the “Velvetleaf plant response rating” value [16, 17] was 0 and the “Plant response rating, Velvetleaf” value [16, 18] was 0.
For `CC(C)N(C(=O)n1oc(=O)n(C(C)C2CCC2)c1=O)c1ccccc1` (centres unmarked) [Compound 717], the “Blackgrass plant response rating” value [1, 17] was 9, the “Blackgrass plant response rating” value [1, 21] was 10 and the “Blackgrass plant response rating” value [1, 22] was 10. For the same molecule, the “Redroot pigweed plant response rating” value [2, 17] was 6, the “Redroot pigweed plant response rating” value [2, 21] was 8 and the “Redroot pigweed plant response rating” value [2, 22] was 8. The “Rape plant response rating” value [3, 17] was 0, the “Rape plant response rating” value [3, 21] was 0 and the “Rape plant response rating” value [3, 22] was 4. The “Crabgrass plant response rating” value [4, 17] was 10, the “Crabgrass plant response rating” value [4, 21] was 10 and the “Crabgrass plant response rating” value [4, 22] was 10. The “Wild oats plant response rating” value [5, 17] was 9, the “Wild oats plant response rating” value [5, 21] was 9 and the “Wild oats plant response rating” value [5, 22] was 10. For the same molecule, the “Sugarbeets plant response rating” value [6, 17] was 0, the “Sugarbeets plant response rating” value [6, 21] was 2 and the “Sugarbeets plant response rating” value [6, 22] was 3. For the same molecule, the “Cocklebur plant response rating” value [7, 17] was 0, the “Cocklebur plant response rating” value [7, 21] was 0 and the “Cocklebur plant response rating” value [7, 22] was 0. For the same molecule, the “Morningglory plant response rating” value [8, 17] was 0, the “Morningglory plant response rating” value [8, 21] was 0 and the “Morningglory plant response rating” value [8, 22] was 0. For the same molecule, the “B. signalgrass plant response rating” value [9, 17] was 4, the “B. signalgrass plant response rating” value [9, 21] was 7 and the “B. signalgrass plant response rating” value [9, 22] was 7. The “Nutsedge plant response rating” value [10, 17] was 0, the “Nutsedge plant response rating” value [10, 21] was 0 and the “Nutsedge plant response rating” value [10, 22] was 0. For the same molecule, the “Wheat plant response rating” value [11, 17] was 0, the “Wheat plant response rating” value [11, 21] was 0 and the “Wheat plant response rating” value [11, 22] was 0. For the same molecule, the “Corn plant response rating” value [12, 17] was 0, the “Corn plant response rating” value [12, 21] was 3 and the “Corn plant response rating” value [12, 22] was 9. For the same molecule, the “Soybean plant response rating” value [13, 17] was 0, the “Soybean plant response rating” value [13, 21] was 0 and the “Soybean plant response rating” value [13, 22] was 0. The “Bedstraw plant response rating” value [14, 17] was 0, the “Bedstraw plant response rating” value [14, 21] was 0 and the “Bedstraw plant response rating” value [14, 22] was 0. The “Giant foxtail plant response rating” value [15, 17] was 10, the “Giant foxtail plant response rating” value [15, 21] was 10 and the “Giant foxtail plant response rating” value [15, 22] was 10. The “Velvetleaf plant response rating” value [16, 17] was 0, the “Velvetleaf plant response rating” value [16, 21] was 0 and the “Velvetleaf plant response rating” value [16, 22] was 0.

Reference: patent publication US6737383B1, “Herbicidal oxadiazolidines” (priority 1999, dated 2004)
